#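 These data come from cells grown in 96-well plates and exposed to compound for 48 hours at five concentrations. TGI marks complete inhibition of growth.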
# Experiments:
# Assay in all cases: NCI anticancer screen, dose series, 48 h
# UACC-62 melanoma = test system: UACC-62 melanoma
# BT-549 breast = test system: BT-549 breast
# NCI-H226 lung = test system: NCI-H226 lung
# OVCAR-8 ovarian = test system: OVCAR-8 ovarian
# ACHN renal = test system: ACHN renal
# K-562 leukemia = test system: K-562 leukemia
# SR leukemia = test system: SR leukemia
# IGROV1 ovarian = test system: IGROV1 ovarian
# M14 melanoma = test system: M14 melanoma
# LOX IMVI melanoma = test system: LOX IMVI melanoma
# NCI-H522 lung = test system: NCI-H522 lung
# OVCAR-3 ovarian = test system: OVCAR-3 ovarian
# SNB-19 CNS = test system: SNB-19 CNS
# CAKI-1 renal = test system: CAKI-1 renal
# UACC-257 melanoma = test system: UACC-257 melanoma
# SN12C renal = test system: SN12C renal
# HCC-2998 colon = test system: HCC-2998 colon
# NCI-H23 lung = test system: NCI-H23 lung
# MOLT-4 leukemia = test system: MOLT-4 leukemia
# OVCAR-5 ovarian = test system: OVCAR-5 ovarian
# U251 CNS = test system: U251 CNS
# OVCAR-4 ovarian = test system: OVCAR-4 ovarian
# COLO 205 colon = test system: COLO 205 colon
# NCI-H460 lung = test system: NCI-H460 lung
# TK-10 renal = test system: TK-10 renal
# EKVX NSCLC = test system: EKVX NSCLC
# HOP-92 NSCLC = test system: HOP-92 NSCLC
# SF-268 CNS = test system: SF-268 CNS
# HS 578T breast = test system: HS 578T breast
# UO-31 renal = test system: UO-31 renal
# MCF7 breast = test system: MCF7 breast
# 786-0 renal = test system: 786-0 renal
# PC-3 prostate = test system: PC-3 prostate
# HOP-62 NSCLC = test system: HOP-62 NSCLC
# SF-539 CNS = test system: SF-539 CNS
# SK-MEL-5 melanoma = test system: SK-MEL-5 melanoma
# HCT-15 colon = test system: HCT-15 colon
# NCI/ADR-RES ovarian = test system: NCI/ADR-RES ovarian
# KM12 colon = test system: KM12 colon
# HT29 colon = test system: HT29 colon
# SF-295 CNS = test system: SF-295 CNS
# MDA-N = test system: MDA-N
# MDA-MB-435 = test system: MDA-MB-435
# SW-620 colon = test system: SW-620 colon
# HCT-116 colon = test system: HCT-116 colon
# A549 NSCLC = test system: A549 NSCLC
# SNB-75 CNS = test system: SNB-75 CNS
# MDA-MB-231 breast = test system: MDA-MB-231 breast
# DU-145 prostate = test system: DU-145 prostate
# CCRF-CEM leukemia = test system: CCRF-CEM leukemia
# SK-OV-3 ovarian = test system: SK-OV-3 ovarian
# SK-MEL-28 melanoma = test system: SK-MEL-28 melanoma
# RXF 393 renal = test system: RXF 393 renal
# A498 renal = test system: A498 renal
# HL-60(TB) leukemia = test system: HL-60(TB) leukemia
# RPMI-8226 leukemia = test system: RPMI-8226 leukemia
# SK-MEL-2 melanoma = test system: SK-MEL-2 melanoma
# MALME-3M melanoma = test system: MALME-3M melanoma
# T-47D breast = test system: T-47D breast
smiles,measurement,setting,value
COC(=O)Cc1cccc2c(=O)c(S(=O)(=O)NC(=O)Nc3ccc(Cl)cc3)c(-c3ccccc3)oc12,TGI,UACC-62 melanoma,> 100 µM
same,TGI,BT-549 breast,> 100 µM
same,TGI,NCI-H226 lung,> 100 µM
same,TGI,OVCAR-8 ovarian,> 100 µM
same,TGI,ACHN renal,63.5 µM
same,TGI,K-562 leukemia,> 100 µM
same,TGI,SR leukemia,> 100 µM
same,TGI,IGROV1 ovarian,> 100 µM
same,TGI,M14 melanoma,> 100 µM
same,TGI,LOX IMVI melanoma,> 100 µM
same,TGI,NCI-H522 lung,38.6 µM
same,TGI,OVCAR-3 ovarian,> 100 µM
same,TGI,SNB-19 CNS,> 100 µM
same,TGI,CAKI-1 renal,74.3 µM
same,TGI,UACC-257 melanoma,> 100 µM
same,TGI,SN12C renal,> 100 µM
same,TGI,HCC-2998 colon,> 100 µM
same,TGI,NCI-H23 lung,> 100 µM
same,TGI,MOLT-4 leukemia,> 100 µM
same,TGI,OVCAR-5 ovarian,> 100 µM
same,TGI,U251 CNS,> 100 µM
same,TGI,OVCAR-4 ovarian,> 100 µM
same,TGI,COLO 205 colon,> 100 µM
same,TGI,NCI-H460 lung,> 100 µM
same,TGI,TK-10 renal,> 100 µM
same,TGI,EKVX NSCLC,> 100 µM
same,TGI,HOP-92 NSCLC,> 100 µM
same,TGI,SF-268 CNS,> 100 µM
same,TGI,HS 578T breast,> 100 µM
same,TGI,UO-31 renal,> 100 µM
same,TGI,MCF7 breast,> 100 µM
same,TGI,786-0 renal,> 100 µM
same,TGI,PC-3 prostate,> 100 µM
same,TGI,HOP-62 NSCLC,> 100 µM
same,TGI,SF-539 CNS,> 100 µM
same,TGI,SK-MEL-5 melanoma,> 100 µM
same,TGI,HCT-15 colon,> 100 µM
same,TGI,NCI/ADR-RES ovarian,> 100 µM
same,TGI,KM12 colon,> 100 µM
same,TGI,HT29 colon,> 100 µM
same,TGI,SF-295 CNS,> 100 µM
same,TGI,MDA-N,> 100 µM
same,TGI,MDA-MB-435,> 100 µM
same,TGI,SW-620 colon,> 100 µM
same,TGI,HCT-116 colon,> 100 µM
same,TGI,A549 NSCLC,> 100 µM
same,TGI,SNB-75 CNS,> 100 µM
same,TGI,MDA-MB-231 breast,> 100 µM
same,TGI,DU-145 prostate,> 100 µM
same,TGI,CCRF-CEM leukemia,> 100 µM
same,TGI,SK-OV-3 ovarian,> 100 µM
same,TGI,SK-MEL-28 melanoma,> 100 µM
CCCC(=O)Oc1c2ccsc2c(OC(=O)CCC)c2ccsc12,TGI,UACC-62 melanoma,2.07 µM
same,TGI,RXF 393 renal,5.86 µM
same,TGI,BT-549 breast,2.83 µM
same,TGI,NCI-H226 lung,7.15 µM
same,TGI,OVCAR-8 ovarian,2.02 µM
same,TGI,ACHN renal,9.99 µM
same,TGI,K-562 leukemia,8.46 µM
same,TGI,SR leukemia,7.32 µM
same,TGI,IGROV1 ovarian,6.87 µM
same,TGI,M14 melanoma,> 12.8 µM
same,TGI,LOX IMVI melanoma,10.7 µM
same,TGI,NCI-H522 lung,4.85 µM
same,TGI,OVCAR-3 ovarian,4.5 µM
same,TGI,SNB-19 CNS,5.28 µM
same,TGI,CAKI-1 renal,11.7 µM
same,TGI,UACC-257 melanoma,1.82 µM
same,TGI,SN12C renal,2.98 µM
same,TGI,A498 renal,7.34 µM
same,TGI,HCC-2998 colon,6.71 µM
same,TGI,HL-60(TB) leukemia,3.79 µM
same,TGI,NCI-H23 lung,3.64 µM
same,TGI,MOLT-4 leukemia,7.63 µM
same,TGI,OVCAR-5 ovarian,7.36 µM
same,TGI,U251 CNS,4.4 µM
same,TGI,OVCAR-4 ovarian,5.7 µM
same,TGI,COLO 205 colon,19.7 µM
same,TGI,NCI-H460 lung,3.12 µM
same,TGI,RPMI-8226 leukemia,5.48 µM
same,TGI,TK-10 renal,7.67 µM
same,TGI,EKVX NSCLC,5.2 µM
same,TGI,HOP-92 NSCLC,3.06 µM
same,TGI,SF-268 CNS,10.7 µM
same,TGI,UO-31 renal,5.11 µM
same,TGI,SK-MEL-2 melanoma,1.86 µM
same,TGI,MCF7 breast,7.55 µM
same,TGI,786-0 renal,8.04 µM
same,TGI,MALME-3M melanoma,0.699 µM
same,TGI,PC-3 prostate,3.52 µM
same,TGI,HOP-62 NSCLC,2.9 µM
same,TGI,SF-539 CNS,2.16 µM
same,TGI,T-47D breast,12.1 µM
same,TGI,HCT-15 colon,4.59 µM
same,TGI,NCI/ADR-RES ovarian,4.55 µM
same,TGI,KM12 colon,13.8 µM
same,TGI,HT29 colon,12 µM
same,TGI,SF-295 CNS,0.885 µM
same,TGI,MDA-N,0.725 µM
same,TGI,MDA-MB-435,0.586 µM
same,TGI,SW-620 colon,8.9 µM
same,TGI,HCT-116 colon,4.82 µM
same,TGI,A549 NSCLC,6.84 µM
same,TGI,MDA-MB-231 breast,10.3 µM
same,TGI,DU-145 prostate,1.47 µM
same,TGI,CCRF-CEM leukemia,9.13 µM
same,TGI,SK-OV-3 ovarian,10.4 µM
same,TGI,SK-MEL-28 melanoma,1.59 µM

# Reference: PubChem BioAssay (NCI)
